From US6489304B2, “Hyperstructure-forming carriers” (Hybridon, Inc., priority 1997, dated 2002)

Tests used:
[1] = Tissue distribution of radioactivity after i.v. bolus administration of radiolabeled oligonucleotides; assay type: in vivo; settings: rats
Source text: (§1) To carry out pharmacokinetic studies, [^35S]-labeled PS-oligonucleotides were synthesized using phosphoramidite chemistry; the intermediate phosphite linkage was oxidized with [^35S8] to incorporate [^35S]. (Agrawal, et al., Synthetic Methods for the Radioisotopic Labeling of Oligonucleotides, in: Antisense Oligonucleotide from Technology to Therapy (Schlingensiepen, ed.) Blackwell, Berlin, pp. 60-77 (1996)). [^35S] was incorporated at the fifth (oligonucleotide HYB0411) or fourth (oligonucleotide HYB0412 and HYB0413) internucleotide linkage.
(§2) A dose of 10 mg/kg of [^35S]-labeled PS-oligonucleotide was administered intravenously (i.v.) to rats (Wistar rats from Charles River, Wilmington, Mass.). Following administration, plasma was collected after 5, 15 and 30 minutes and after 1, 3, 6, 12, 24 and 48 hours. Radioactivity levels were measured to monitor plasma clearance at each time point. Following administration of PS-oligonucleotide, animals (3 rats/group) were sacrificed at 12, 24 and 48 hours. The following tissues were removed and homogenized: muscle, lung, liver, kidney, and spleen. Radioactive levels were measured, to monitor tissue distribution of each of the oligonucleotides. To follow the excretion of PS-oligonucleotides, urine and feces were collected using metabolism cages at 0-3, 3-6, 6-12, 12-24 and 24-48 hour intervals and radioactivity levels were measured using the methods previously reported (Zhang, et al., Biochem. Pharmacol., 49: 929-939 (1995)).
The oligonucleotide-equivalent concentrations of radioactivity in tissues after i.v. bolus administration of radiolabeled oligonucleotides to rats are shown in FIGS. 4-8. […] Significant differences in distribution pattern were found among the three oligonucleotides. […] Oligonucleotide HYB0411 had the highest kidney concentration: 40% higher than that of Oligonucleotides HYB0412 and HYB0413.

[2] = Cumulative urinary and fecal excretion of radioactivity over 48 hours; assay type: in vivo; settings: rats, 10 mg/kg i.v., rank among the three oligonucleotides
Method: as §2
FIGS. 9 and 10 show the cumulative excretion of urinary and fecal radioactivity over 48 hours following administration of radiolabeled oligonucleotides. Urinary excretion represented the major pathway of elimination. […] Oligonucleotide HYB0411 had the lowest urinary excretion rate and Oligonucleotide HYB0413 had the highest urinary excretion rate. Fecal excretion was a minor pathway of elimination (FIG. 11); Oligonucleotide HYB0413 had the highest fecal excretion rate.

[3] = Plasma pharmacokinetics of [35S]-labeled PS-oligonucleotides after i.v. bolus administration; assay type: in vivo; settings: rats, 10 mg/kg i.v.; for maximum plasma concentration (Cmax): radioactivity, compared with Oligonucleotide HYB0413
Source text: as §1, §2
FIG. 3 illustrates the plasma concentration-time courses of oligonucleotide equivalents after i.v. bolus administration of radiolabeled oligonucleotides into rats, based on quantification of radioactivity. As shown in previous studies (Agrawal, et al., Clin. Pharm. 28:7-16 (1995); Zhang, et al., Biochem. Pharmacol., 49: 929-939 (1995)), PS-oligonucleotides rapidly clear from the plasma. […] No significant difference in plasma elimination half-life (t½β) was observed.

[4] = Chemical forms of radioactivity in tissues by polyacrylamide gel electrophoresis (in vivo stability); settings: rats

Row | Substance | lung concentration ([1]; 10 mg/kg i.v., compared with HYB0411 and HYB0412) | tissue concentrations in the tissues examined (in general) ([1]; 10 mg/kg i.v., comparison among the three oligonucleotides) | bone marrow concentration ([1]; 12 hours after dosing, compared with HYB0411 and HYB0412, data not shown) | fecal excretion rate [2] | urinary excretion rate [2] | maximum plasma concentration (Cmax) [3] | distribution half-life (t½α) ([3]; compared with Oligonucleotides HYB0412 and HYB0413) | liver concentration, higher than Oligonucleotide HYB0413 ([1]; 10 mg/kg i.v.) | kidney concentration, higher than that of Oligonucleotides HYB0412 and HYB0413 ([1]; 10 mg/kg i.v., highest kidney concentration) | degradation in the kidney ([4]; kidney tissue, PAGE after 5'-post labeling) | in vivo stability ([4]; b74 compared with Oligonucleotide HYB0411, b75 compared with control oligonucleotide) | absorption ([4]; compared with Oligonucleotide HYB0411)
1 | 5′-CTCTCGCACCCATCTCTCTCCTTCT-3′ [Oligonucleotide HYB0413, reference compound] | significantly higher concentrations | different from those of Oligonucleotide HYB0411 and Oligonucleotide HYB0412 | higher concentrations | highest | highest |  |  |  |  |  |  | 
2 | 5′-CTCTCGCACCCATCTCTCTCCTTCTGGGG-3′ (all phosphorothioate, sugars by position and methylation of C not given here) [Oligonucleotide HYB0411] |  |  |  |  | lowest | significantly higher | shorter | approximately 50% | 40% | time-dependent degradation |  | 
3 | 5′-CTCTCGCACCCATCTCTCTCCTTCTGTGT-3′ [Oligonucleotide HYB0412] |  |  |  |  |  | significantly higher |  | approximately 50% |  |  | superior in vivo stability | greater absorption
